Experimental data from US20020169166A1, “Benzimidazoles that are useful in treating sexual dysfunction” (priority 2001, published 2002).

Columns and labels:
Wistar rats = assay: Rat Penile Erection Model; assay type: in vivo; conditions: for Induced Penile Erection in Rats, Incidence (%): subcutaneous, animals with 1 or more erections in 60 minutes; for induced penile erections in rats (significance): subcutaneous administration, doses of 0.01 μmol/kg to 0.10 μmol/kg
Method: Wistar rats were used as a primary animal model to study penile erection in vivo. All experiments were carried out between 9:00 AM and 3:00 PM in a diffusely illuminated testing room with a red light. Animals were weighed and allowed to adapt to the testing room for 60 minutes before the beginning of experiments. Rats were placed individually in a transparent cage (20×30×30 cm) after drug injection.
(L)-Ascorbic acid in saline (1 mg/mL) was used as vehicle. Twelve animals were used per dose.

Male Fitch ferrets = tested on: Male Fitch ferrets; parameters: species or system ferret; conditions: in vivo, sc
Method: Male Fitch ferrets (body weights 1.0-1.5 kg) were obtained from Marshall Farms. Ferrets were fasted overnight before experimentation. Apomorphine or a compound of the present invention was administrated subcutaneously; animals were placed individually in observation cages and the drug-induced emesis and signs of nausea were determined (by direct observation) for a period of 90 minutes following drug injection. Nausea was characterized by behaviors such as licking, gagging, backing, head burying, and intense abdominal grooming. Emesis was usually preceded by these behaviors and was characterized by rhythmic abdominal contractions which were associated with vomiting or retching movement.
Sterile saline was used as vehicle. Six animals were used per dose.

Compound | melting point [°C] | further results
c1ccc(N2CCN(Cc3nc4ccccc4[nH]3)CC2)nc1 [2-[(4-pyridin-2-ylpiperazin-1-yl)methyl]-1H-benzimidazole] | – | Induced Penile Erection in Rats, Incidence (%) (Wistar rats; dose 0.003 μmol/kg, Table 1): 25%; Induced Penile Erection in Rats, Incidence (%) (Wistar rats; dose 0.01 μmol/kg, Table 1): 50%; Induced Penile Erection in Rats, Incidence (%) (Wistar rats; dose 0.03 μmol/kg, Table 1): 83%; Induced Penile Erection in Rats, Incidence (%) (Wistar rats; dose 0.10 μmol/kg, Table 1): 58%; induced penile erections in rats (significance) (Wistar rats): statistically significant; emesis in ferrets (in words) (Male Fitch ferrets): did not induce emesis
CN1CCc2cccc3c2[C@H]1Cc1ccc(O)c(O)c1-3 [Apomorphine, (6aR) 5,6,6a,7-tetrahydro-6-methyl-4H-dibenzo[de,g]quinoline-10,11-diol, reference compound] | – | incidence of rat penile erections (Wistar rats; positive control of Table 1, dose 0.1 μmol/kg): 83%; incidence of rat penile erections (Wistar rats; positive control of Table 2, dose 0.1 μmol/kg): 93%
O=C(N1CCCC1)n1c(CN2CCN(c3ccccn3)CC2)nc2ccccc21 [Example 9, 2-[(4-pyridin-2-ylpiperazin-1-yl)methyl]-1-(pyrrolidin-1-ylcarbonyl)-1H-benzimidazole] | 120 to 121 | –
CN(C)C(=O)n1c(CN2CCN(c3ccccn3)CC2)nc2ccccc21 [Example 10, N,N-dimethyl-2-[(4-pyridin-2-ylpiperazin-1-yl)methyl]-1H-benzimidazole-1-carboxamide] | 174 to 176 | –
N#Cc1ccccc1N1CCN(Cc2nc3ccccc3[nH]2)CC1 [Example 12, 2-[4-(1H-benzimidazol-2-ylmethyl)piperazin-1-yl]benzonitrile] | 236 to 237 | –
Clc1ccccc1N1CCN(Cc2nc3ccccc3[nH]2)CC1 [Example 13, 2-{[4-(2-chlorophenyl)piperazin-1-yl]methyl}-1H-benzimidazole] | 245 to 246 | –
Oc1ccc(N2CCN(Cc3nc4ccccc4[nH]3)CC2)cc1 [Example 17, 4-[4-(1H-benzimidazol-2-ylmethyl)piperazin-1-yl]phenol] | 206 to 209 | –
CSc1ccccc1N1CCN(Cc2nc3ccccc3[nH]2)CC1 [Example 18, 2-({4-[2-(methylthio)phenyl]piperazin-1-yl}methyl)-1H-benzimidazole] | 214 to 216 | –
CCOc1ccccc1N1CCN(Cc2nc3ccccc3[nH]2)CC1 [Example 19, 2-{[4-(2-ethoxyphenyl)piperazin-1-yl]methyl}-1H-benzimidazole] | 95 to 100 | –
CC1CN(c2ccccn2)CCN1Cc1nc2ccccc2[nH]1 (stereo not drawn) [Example 24, 2-[(2-methyl-4-pyridin-2-ylpiperazin-1-yl)methyl]-1H-benzimidazole] | 207 to 209 | –
C[C@H]1CN(c2ccccn2)CCN1Cc1nc2ccccc2[nH]1 [Example 25, 2-{[(2S)-2-methyl-4-pyridin-2-ylpiperazin-1-yl]methyl}-1H-benzimidazole] | 149 to 151 | –
C[C@@H]1CN(c2ccccn2)CCN1Cc1nc2ccccc2[nH]1 [Example 26, 2-{[(2R)-2-methyl-4-pyridin-2-ylpiperazin-1-yl]methyl}-1H-benzimidazole] | 151 to 153 | –

More lines, main results first:

melting point [°C] | Compound | further results
144 to 145 | Oc1ccc(N2CCN(Cc3nc4ccccc4[nH]3)CC2)nc1 [6-[4-(1H-benzimidazol-2-ylmethyl)piperazin-1-yl]pyridin-3-ol] | Induced Penile Erection in Rats, Incidence (%) (Wistar rats; dose 0.01 μmol/kg, Table 2): 42%; Induced Penile Erection in Rats, Incidence (%) (Wistar rats; dose 0.03 μmol/kg, Table 2): 58%; Induced Penile Erection in Rats, Incidence (%) (Wistar rats; dose 0.1 μmol/kg, Table 2): 58%; Induced Penile Erection in Rats, Incidence (%) (Wistar rats; dose 0.3 μmol/kg, Table 2): 33%; induced penile erections in rats (significance) (Wistar rats): statistically significant
198 to 200 | c1cnc(N2CCN(Cc3nc4ccccc4[nH]3)CC2)nc1 [Example 2, 2-[(4-pyrimidin-2-ylpiperazin-1-yl)methyl]-1H-benzimidazole] | –
208 to 210 | N#Cc1cccnc1N1CCN(Cc2nc3ccccc3[nH]2)CC1 [Example 4, 2-[4-(1H-benzimidazol-2-ylmethyl)piperazin-1-yl]nicotinonitrile] | –
203 to 205 | c1ccc2[nH]c(CN3CCN(c4nccs4)CC3)nc2c1 [Example 7, 2-{[4-(1,3-thiazol-2-yl)piperazin-1-yl]methyl}-1H-benzimidazole] | –
262 to 264 | Fc1ccccc1N1CCN(Cc2nc3ccccc3[nH]2)CC1 [Example 14, 2-{[4-(2-fluorophenyl)piperazin-1-yl]methyl}-1H-benzimidazole] | –
208 to 216 | Oc1ccccc1N1CCN(Cc2nc3ccccc3[nH]2)CC1 [Example 20, 2-[4-(1H-benzimidazol-2-ylmethyl)piperazin-1-yl]phenol] | –
210 to 212 | Fc1cccnc1N1CCN(Cc2nc3ccccc3[nH]2)CC1 [Example 28, 2-{[4-(3-fluoropyridin-2-yl)piperazin-1-yl]methyl}-1H-benzimidazole] | –
